The text below walks through data of patent US20250340574A1, “MODULATORS OF CYSTIC FIBROSIS TRANSMEMBRANE CONDUCTANCE REGULATOR” (Vertex Pharmaceuticals Incorporated, priority 2022, published 2025).

The conditions of series [1]: amide bond, 13-membered ring, CDMT/NMM, DMF.
Series [2] deals with T1, CFTR (F508del/MF-HBE cells) (Homo sapiens, UniProt P13569, DEL508-508).
T1 construct: human bronchial epithelial (HBE) cells derived from CF subjects heterozygous for F508del and a minimal function CFTR mutation (F508del/MF-HBE); endogenous in cells; host or cells: Primary human bronchial epithelial cells from CF subjects (F508del/MF genotype), differentiated at an air-liquid interface
The series is described as follows: Ussing chamber assay of CFTR-mediated short-circuit currents, Assay B (0.00001 μM to 25 μM, 12 concentrations). Particulars: with 33 nM potentiator and 18 μM Tezacaftor, 20% human serum; for Emax: 18-24 hours, read-out: B Max activity (%). The series is classed as cell-based. The protocol: Ussing chamber experiments were performed using human bronchial epithelial (HBE) cells derived from CF subjects heterozygous for F508del and a minimal function CFTR mutation (F508del/MF-HBE) and cultured as previously described (Neuberger T, Burton B, Clark H, Van Goor F Methods Mol Biol 2011:741:39-54). After four days the apical media was removed, and the cells were grown at an air liquid interface for >14 days prior to use.
To isolate the CFTR-mediated short-circuit (ISC) current, F508del/MF-HBE grown on Costar® Snapwell™ cell culture inserts were mounted in an Ussing chamber and the transepithelial ISC was measured under voltage-clamp recording conditions (Vhold=0 mV) at 37° C. The basolateral solution contained (in mM) 145 NaCl, 0.83 K2HPO4, 3.3 KH2PO4, 1.2 MgCl2, 1.2 CaCl2, 10 Glucose, 10 HEPES (pH adjusted to 7.4 with NaOH) and the apical solution contained (in mM) 145 NaGluconate, 1.2 MgCl2, 1.2 CaCl2, 10 glucose, 10 HEPES (pH adjusted to 7.4 with NaOH) and 30 μM amiloride to block the epithelial sodium channel. Forskolin (20 μM) was added to the apical surface to activate CFTR, followed by apical addition of a CFTR inhibitor cocktail consisting of BPO, GlyH-101, and CFTR inhibitor 172 (each at 20 μM final assay concentration) to specifically isolate CFTR currents. The CFTR-mediated ISC (μA/cm^2) for each condition was determined from the peak forskolin response to the steady-state current following inhibition.
The activity of the CFTR corrector compounds on the CFTR-mediated ISC was determined in Ussing chamber studies as described above. The F508del/MF-HBE cell cultures were either incubated with the corrector compounds at a range of concentrations in combination with 33 nM (6R,12R)-17-amino-12-methyl-6,15-bis(trifluoromethyl)-13,19-dioxa-3,4,18-triazatricyclo[12.3.1.12,5]nonadeca-1(18),2,4,14,16-pentaen-6-ol and 18 μM Tezacaftor or were incubated with the corrector compounds at a single fixed concentration of 1 μM in combination with 44 nM (6R,12R)-17-amino-12-methyl-6,15-bis(trifluoromethyl)-13,19-dioxa-3,4,18-triazatricyclo[12.3.1.12,5]nonadeca-1(18),2,4,14,16-pentaen-6-ol and 18 μM Tezacaftor for 18-24 hours at 37° C. and in the presence of 20% human serum. The concentration of corrector compounds with 44 nM or 33 nM (6R,12R)-17-amino-12-methyl-6,15-bis(trifluoromethyl)-13,19-dioxa-3,4,18-triazatricyclo[12.3.1.12,5]nonadeca-1(18),2,4,14,16-pentaen-6-ol and 18 μM Tezacaftor during the 18-24 hours incubations was kept constant throughout the Ussing chamber measurement of the CFTR-mediated ISC to ensure compounds were present throughout the entire experiment. The efficacy and potency of the putative F508del correctors was compared to that of the known Vertex corrector, (14S)-8-[3-(2-{Dispiro[2.0.2.1]heptan-7-yl}ethoxy)-1H-pyrazol-1-yl]-12,12-dimethyl-2λ^6-thia-3,9,11,18,23-pentaazatetracyclo[17.3.1.111,14.05,10]tetracosa-1(22),5,7,9,19(23),20-hexaene-2,2,4-trione, in combination with 18 μM Tezacaftor and 1 μM Ivacaftor.
• Assay A: 0.1 μM to 25 μM, 6 concentrations • Assay B: 0.00001 μM to 25 μM, 12 concentrations • Assay C: 0.026 μM to 25 μM, 6 concentrations • Assay D: Activity at single concentration of 1 μM

For series [3], the target named is T1, CFTR (F508del/MF-HBE cells). The series is described as follows: Ussing chamber assay of CFTR-mediated short-circuit currents, Assay C (0.026 μM to 25 μM, 6 concentrations). Format: cell-based. Particulars: with 33 nM potentiator and 18 μM Tezacaftor, 20% human serum. The method, boiled down: (§1)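 F508del/MF-HBE cells were preincubated 18–24 h at 37 °C in 20% human serum with corrector plus 18 μM tezacaftor and either 33 nM (concentration series) or 44 nM (1 μM single point) of the aminotrifluoromethyl triazatricyclic potentiator. Ussing chamber, Vhold=0 mV, 37 °C; forskolin 20 μM stimulation, CFTR ISC taken as inhibitor-cocktail-sensitive current.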

The target is the same in series [4]. The series is described as follows: Ussing chamber assay of CFTR-mediated short-circuit currents, Assay D (single concentration of 1 μM). The series is classed as cell-based. Particulars: with 44 nM potentiator and 18 μM Tezacaftor, 18-24 hours, 20% human serum. In short, it runs like this: as §1
Series [5] has the same target. The series is described as follows: Ussing chamber assay of CFTR-mediated short-circuit currents, Assay A (0.1 μM to 25 μM, 6 concentrations). The series is classed as cell-based. Particulars: with 33 nM potentiator and 18 μM Tezacaftor, 20% human serum; for Emax: 18-24 hours, read-out: A Max activity (%). The method, boiled down:
as §1

One may read the EC50 as the midpoint of the concentration-response curve.

Structures are written as SMILES. Read-outs that look alike come from different tables or passages of the source.

T1 sequence (P13569 with tags, fused parts or gaps DEL508-508): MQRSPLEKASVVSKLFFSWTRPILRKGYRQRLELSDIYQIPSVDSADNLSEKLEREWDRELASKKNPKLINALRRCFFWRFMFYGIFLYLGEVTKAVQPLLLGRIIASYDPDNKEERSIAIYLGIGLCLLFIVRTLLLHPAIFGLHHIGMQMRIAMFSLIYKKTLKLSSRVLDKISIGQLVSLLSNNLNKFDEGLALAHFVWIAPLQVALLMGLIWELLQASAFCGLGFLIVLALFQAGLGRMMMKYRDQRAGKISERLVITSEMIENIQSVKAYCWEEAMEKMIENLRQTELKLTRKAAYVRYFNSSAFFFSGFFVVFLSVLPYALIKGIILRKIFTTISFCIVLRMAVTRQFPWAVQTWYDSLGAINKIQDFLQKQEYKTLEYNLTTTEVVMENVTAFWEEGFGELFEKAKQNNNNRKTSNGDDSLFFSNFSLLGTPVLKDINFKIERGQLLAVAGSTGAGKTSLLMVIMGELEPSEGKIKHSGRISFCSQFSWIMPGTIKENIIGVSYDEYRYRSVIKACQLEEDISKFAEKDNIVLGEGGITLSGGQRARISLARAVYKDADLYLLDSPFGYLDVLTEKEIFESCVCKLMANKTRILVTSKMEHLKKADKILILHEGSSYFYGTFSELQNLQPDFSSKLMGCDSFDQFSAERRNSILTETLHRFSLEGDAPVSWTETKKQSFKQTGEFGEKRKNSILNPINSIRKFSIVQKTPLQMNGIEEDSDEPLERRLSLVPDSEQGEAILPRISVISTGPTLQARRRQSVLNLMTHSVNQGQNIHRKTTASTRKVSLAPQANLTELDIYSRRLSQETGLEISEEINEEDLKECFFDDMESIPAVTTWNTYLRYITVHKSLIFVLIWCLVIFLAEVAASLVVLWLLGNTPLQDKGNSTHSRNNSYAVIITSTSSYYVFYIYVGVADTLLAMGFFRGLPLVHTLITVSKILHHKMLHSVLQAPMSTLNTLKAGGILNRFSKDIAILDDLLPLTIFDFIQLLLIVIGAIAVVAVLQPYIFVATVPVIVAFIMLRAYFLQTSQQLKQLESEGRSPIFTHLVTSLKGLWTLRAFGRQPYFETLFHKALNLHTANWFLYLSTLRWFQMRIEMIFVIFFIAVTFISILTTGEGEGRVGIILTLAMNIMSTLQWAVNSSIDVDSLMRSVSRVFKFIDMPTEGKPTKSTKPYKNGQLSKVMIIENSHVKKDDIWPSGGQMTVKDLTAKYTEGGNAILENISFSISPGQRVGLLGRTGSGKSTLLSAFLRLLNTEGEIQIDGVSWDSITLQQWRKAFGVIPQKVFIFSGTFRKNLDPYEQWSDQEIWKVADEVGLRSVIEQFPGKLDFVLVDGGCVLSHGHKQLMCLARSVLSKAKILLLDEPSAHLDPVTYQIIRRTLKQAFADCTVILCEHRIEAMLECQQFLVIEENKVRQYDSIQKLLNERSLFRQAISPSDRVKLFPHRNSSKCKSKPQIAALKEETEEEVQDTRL

With `Cc1cccc(C)c1-c1nc2nc(c1C)OC[C@@H](CC(C)(C)C)N(Cc1cnc3cc(C(C)(C)C)n(C)c3n1)C(=O)c1cccc(c1)S(=O)(=O)N2` [Compound I-188, (11R)-12-[(6-tert-Butyl-5-methyl-pyrrolo[2,3-b]pyrazin-3-yl)methyl]-6-(2,6-dimethylphenyl)-11-(2,2-dimethylpropyl)-7-methyl-2,2-dioxo-9-oxa-2λ^6-thia-3,5,12,19-tetrazatricyclo[12.3.1.14,8]nonadeca-1(18),4(19),5,7,14,16-hexaen-13-one], the ring closure, yield after HPLC in series [1] (from Cc1cccc(C)c1-c1nc(NS(=O)(=O)c2cccc(C(=O)O)c2)nc(OC[C@@H](CC(C)(C)C)NCc2cnc3cc(C(C)(C)C)n(C)c3n2)c1C, 19.8 mM, 4.0 h) worked out at 57%. In addition, the Emax was greater than 60% in series [2] and greater than 60% in series [3] (18-24 hours, read-out: C Max activity (%)). For the same molecule, the EC50 in series [2] and in series [3] was less than 1000 nM throughout. Further, the “D activity at 1 μM (%)” value in series [4] is on record as “+++ (+++ is >60%)”.
Molecule `Cc1cccc(C)c1-c1cc2nc(n1)NS(=O)(=O)c1cccc(c1)C(=O)N(Cc1cnc3oc(C)c(C4CC4)c3n1)[C@H](COC(C)C)CO2` [Compound I-26, (11R)-12-[(7-cyclopropyl-6-methyl-furo[2,3-b]pyrazin-2-yl)methyl]-6-(2,6-dimethylphenyl)-11-(isopropoxymethyl)-2,2-dioxo-9-oxa-2λ^6-thia-3,5,12,19-tetrazatricyclo[12.3.1.14,8]nonadeca-1(18),4(19),5,7,14,16-hexaen-13-one] registered a ring closure, yield after HPLC in series [1] (from Cc1cccc(C)c1-c1cc(OC[C@@H](COC(C)C)NCc2cnc3oc(C)c(C4CC4)c3n2)nc(NS(=O)(=O)c2cccc(C(=O)O)c2)n1, 12.8 mM, 16.5 h) of 61%. Also, in series [5], the Emax was greater than 60% and the EC50 is less than 1000 nM.
`Cc1cccc(C)c1-c1cc2nc(n1)NS(=O)(=O)c1cccc(c1)C(=O)N(Cc1cnc3nc(C(C)C)n(C)c3n1)[C@H](CC13CC(C1)C3)CO2` [Compound I-88, (11R)-11-(1-bicyclo[1.1.1]pentanylmethyl)-6-(2,6-dimethylphenyl)-12-[(2-isopropyl-3-methyl-imidazo[4,5-b]pyrazin-5-yl)methyl]-2,2-dioxo-9-oxa-2λ^6-thia-3,5,12,19-tetrazatricyclo[12.3.1.14,8]nonadeca-1(18),4(19),5,7,14,16-hexaen-13-one] displayed a ring closure, yield after HPLC in series [1] (from Cc1cccc(C)c1-c1cc(OC[C@@H](CC23CC(C2)C3)NCc2cnc3nc(C(C)C)n(C)c3n2)nc(NS(=O)(=O)c2cccc(C(=O)O)c2)n1, 11.0 mM, 16.5 h) of 66%. For the same molecule, in series [5], the Emax was greater than 60% and the EC50 is less than 1000 nM. In series [2], the Emax is greater than 60% and the EC50 was less than 1000 nM.
For the molecule `Cc1cccc(C)c1-c1cc2nc(n1)NS(=O)(=O)c1cccc(c1)C(=O)N(Cc1cnc3oc(C4CCC4)cc3n1)[C@H](CC13CC(C1)C3)CO2` [Compound I-134, (11R)-11-(1-Bicyclo[1.1.1]pentanylmethyl)-12-[(6-cyclobutylfuro[2,3-b]pyrazin-2-yl)methyl]-6-(2,6-dimethylphenyl)-2,2-dioxo-9-oxa-2λ^6-thia-3,5,12,19-tetrazatricyclo[12.3.1.14,8]nonadeca-1(18),4(19),5,7,14,16-hexaen-13-one], the ring closure, yield after HPLC in series [1] (from Cc1cccc(C)c1-c1cc(OC[C@@H](CC23CC(C2)C3)NCc2cnc3oc(C4CCC4)cc3n2)nc(NS(=O)(=O)c2cccc(C(=O)O)c2)n1, 28.4 mM, 2.0 h) stood at 91%. For the same molecule, in series [2], the Emax was greater than 60% and the EC50 is less than 1000 nM.
Regarding `Cc1cccc(C)c1-c1cc2nc(n1)NS(=O)(=O)c1cccc(c1)C(=O)N(Cc1cnc3cn(C(C)C)nc3n1)[C@H](CC1(C)CC1)CO2` [Compound I-128, (11R)-6-(2,6-Dimethylphenyl)-12-[(2-isopropylpyrazolo[3,4-b]pyrazin-6-yl)methyl]-11-[(1-methylcyclopropyl)methyl]-2,2-dioxo-9-oxa-2λ^6-thia-3,5,12,19-tetrazatricyclo[12.3.1.14,8]nonadeca-1(18),4(19),5,7,14,16-hexaen-13-one], the ring closure, yield after HPLC in series [1] (from Cc1cccc(C)c1-c1cc(OC[C@@H](CC2(C)CC2)NCc2cnc3cn(C(C)C)nc3n2)nc(NS(=O)(=O)c2cccc(C(=O)O)c2)n1, 12.0 mM, 22.5 h) is 38%. Moreover, in series [2], the Emax was greater than 60% and the EC50 was 3000 to 30000 nM.
In series [1] (from Cc1cccc(C)c1-c1cc(OC[C@@H](CC23CC(C2)C3)NCc2nc3c(cc2F)cc(C(C)C)n3C)nc(NS(=O)(=O)c2cccc(C(=O)O)c2)n1, 10.7 mM, 24.5 h), `Cc1cccc(C)c1-c1cc2nc(n1)NS(=O)(=O)c1cccc(c1)C(=O)N(Cc1nc3c(cc1F)cc(C(C)C)n3C)[C@H](CC13CC(C1)C3)CO2` [Compound I-87, (11R)-11-(1-bicyclo[1.1.1]pentanylmethyl)-6-(2,6-dimethylphenyl)-12-[(5-fluoro-2-isopropyl-1-methyl-pyrrolo[2,3-b]pyridin-6-yl)methyl]-2,2-dioxo-9-oxa-2λ^6-thia-3,5,12,19-tetrazatricyclo[12.3.1.14,8]nonadeca-1(18),4(19),5,7,14,16-hexaen-13-one] displayed a ring closure, yield after HPLC of 39%. In series [5], the Emax is greater than 60% and the EC50 is less than 1000 nM.
`Cc1cccc(C)c1-c1cc2nc(n1)NS(=O)(=O)c1cccc(c1)C(=O)N(Cc1cnc3oc(C4CC4)cc3n1)[C@H](CC1(F)CCC1)CO2` [Compound I-123, (11R)-12-[(6-cyclopropylfuro[2,3-b]pyrazin-2-yl)methyl]-6-(2,6-dimethylphenyl)-11-[(1-fluorocyclobutyl)methyl]-2,2-dioxo-9-oxa-2λ^6-thia-3,5,12,19-tetrazatricyclo[12.3.1.14,8]nonadeca-1(18),4(19),5,7,14,16-hexaen-13-one]: the ring closure, yield after HPLC in series [1] (from Cc1cccc(C)c1-c1cc(OC[C@@H](CC2(F)CCC2)NCc2cnc3oc(C4CC4)cc3n2)nc(NS(=O)(=O)c2cccc(C(=O)O)c2)n1, 27.1 mM, 2.08 h) was 53%. In series [2], the Emax was greater than 60% and the EC50 was in the range of 3000 to 30000 nM.
